Laboratory results taken from patent US11958856B2, “Substituted 1,2,3,8,9,9a-hexahydro-5H-pyrrolo[1,2-a]azepin-5-ones as factor XIa inhibitors” (Janssen Pharmaceutica NV, priority 2021, dated 2024).
Values belong to the compound of their own block, whether it stands above or below them. Peptide text beside a SMILES is read from it. * marks the point of attachment. 5FAM = O=C1OC2(c3ccc(O)cc3Oc3cc(O)ccc32)c2ccc(C(=O)*)cc21; AMC = Cc1cc(=O)oc2cc(N*)ccc12; Cbz = O=C(OCc1ccccc1)*

What was measured:
Assay type in all cases: biochemical
human plasma kallikrein [1] = target: T1, human plasma kallikrein (Homo sapiens, UniProt P03952); experiment: Kinetic parameters of the peptide substrate with kallikrein (Michaelis-Menten fit)
T1 sequence (P03952 391-638 limits assumed): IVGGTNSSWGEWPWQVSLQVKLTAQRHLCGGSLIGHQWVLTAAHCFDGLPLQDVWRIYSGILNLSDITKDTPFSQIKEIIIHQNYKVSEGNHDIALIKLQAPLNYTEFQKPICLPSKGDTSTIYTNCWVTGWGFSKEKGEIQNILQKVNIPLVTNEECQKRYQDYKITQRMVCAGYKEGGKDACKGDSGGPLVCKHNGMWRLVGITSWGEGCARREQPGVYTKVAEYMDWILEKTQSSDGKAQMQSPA
T1 sequence (P03952 20-390 partner limits assumed): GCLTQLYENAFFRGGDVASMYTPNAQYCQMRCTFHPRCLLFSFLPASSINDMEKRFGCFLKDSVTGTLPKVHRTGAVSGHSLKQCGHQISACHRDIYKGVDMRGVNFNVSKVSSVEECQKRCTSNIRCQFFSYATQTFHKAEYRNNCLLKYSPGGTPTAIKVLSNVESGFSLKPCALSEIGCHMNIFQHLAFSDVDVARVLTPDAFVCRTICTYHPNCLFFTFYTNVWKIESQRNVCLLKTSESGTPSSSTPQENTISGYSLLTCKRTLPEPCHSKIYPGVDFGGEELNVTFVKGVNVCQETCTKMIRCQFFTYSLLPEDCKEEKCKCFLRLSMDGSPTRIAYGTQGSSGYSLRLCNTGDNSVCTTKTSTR
Excerpt: (§1) A fluorescence intensity (FLINT) based assay was used to monitor inhibition of human plasma kallikrein. The peptide substrate, Z-Gly-Pro-Arg-AMC (Purchased from Bachem; Catalog #I-1150) was chosen based on its relatively low KM for kallikrein which enables running the assay at lower substrate concentrations to control background fluorescence.

Factor XIa [2] = target: T2, Factor XIa (Homo sapiens, UniProt P03951); experiment: Factor XIa inhibition assay (FLINT) with fluorophore-quencher pair peptide substrate
T2 sequence (P03951 388-625 limits assumed): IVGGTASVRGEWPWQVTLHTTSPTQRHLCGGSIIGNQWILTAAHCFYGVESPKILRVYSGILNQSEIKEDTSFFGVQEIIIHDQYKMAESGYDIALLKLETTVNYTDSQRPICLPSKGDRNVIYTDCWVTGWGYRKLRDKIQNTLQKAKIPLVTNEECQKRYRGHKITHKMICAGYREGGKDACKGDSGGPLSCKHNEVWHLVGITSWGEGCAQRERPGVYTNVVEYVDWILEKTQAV
T2 sequence (P03951 19-387 partner limits assumed): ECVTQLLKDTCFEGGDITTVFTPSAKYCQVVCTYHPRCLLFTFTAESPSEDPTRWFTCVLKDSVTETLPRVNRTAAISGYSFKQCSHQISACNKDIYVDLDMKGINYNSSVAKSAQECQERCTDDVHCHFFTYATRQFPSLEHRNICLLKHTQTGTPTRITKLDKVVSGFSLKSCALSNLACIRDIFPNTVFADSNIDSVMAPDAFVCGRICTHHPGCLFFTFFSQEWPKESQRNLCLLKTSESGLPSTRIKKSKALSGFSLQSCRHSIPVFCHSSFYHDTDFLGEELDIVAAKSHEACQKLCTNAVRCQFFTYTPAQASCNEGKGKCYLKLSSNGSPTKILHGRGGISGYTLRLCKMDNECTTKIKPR
Excerpt: Biological Example 1: Factor XIa Inhibition Assay Utilizing a Fluorophore-Quencher Pair Peptide Substrate
(§2) A fluorescence intensity (FLINT) based assay was used to monitor inhibition of Factor XIa. The peptide substrate, 5Fam-KLTRAETV-K5Tamra (purchased from New England Peptide) was chosen based on the FXI sequence. Conversion of zymogen FXI to its activated form, FXIa, occurs by proteolytic cleavage by […] at two sites, Arg146 and Arg180. The custom peptide used in this assay was based on the Arg146 cleavage site of FXI. The peptide substrate was designed with a fluorophore-quencher pair, where the fluorescence is quenched until FXIa cleaves the 8-mer peptide after the Arg residue.
The Factor XIa FLINT assay was used with the following 5Fam-KLTRAETV-K5Tamra assay buffer: 50 mM Tris, pH 7.5, 100 mM NaCl, 5 mM CaCl2, 0.1 mg/mL BSA, 0.03% CHAPS. […]
Test compound(s) were run in an 11-point, 3-fold serial dilution with a final top compound concentration of 100 nM. […] The assay was run with kinetic (KIN) reads at 5 min intervals over 30 minutes. […]
(§3) Percent inhibition (IC50) curves were generated per compound tested, and data was analyzed using a 4-parameter logistic fit using GeneData Screener. The relative fluorescence unit (RFU) values were normalized to percent inhibition using the following equation: % inhibition=((HC−LC)−(compound−LC)/(HC−LC))*100 […]

human plasma kallikrein [3] = target: T1, human plasma kallikrein; experiment: Kallikrein inhibition assay (FLINT) with quenched AMC peptide substrate; settings: 30 min preincubation; 50 μM Z-Gly-Pro-Arg-AMC substrate; 2 nM kallikrein; top compound concentration 1 μM
Excerpt: Biological Example 2: Kallikrein Inhibition Assay Utilizing a Quenched AMC Peptide Substrate
as §1
The Kallikrein FLINT assay was used with the following Z-Gly-Pro-Arg-AMC assay buffer: 50 mM Tris, pH 7.5, 100 mM NaCl, 5 mM CaCl2, 0.1 mg/mL BSA, 0.03% CHAPS. Assay buffer was prepared by mixing all ingredients fresh. 2× Z-Gly-Pro-Arg-AMC peptide substrate was prepared by diluting 10 mM stock into 1× assay buffer for a 100 μM working concentration (50 μM final concentration). […]
Test compound(s) were run in an 11-point, 3-fold serial dilution with a final top compound concentration of 1 μM. […] The assay was run with kinetic (KIN) reads at 5 min intervals over 30 minutes. […]
as §3

Factor XIa [4] = target: T2, Factor XIa; experiment: Kinetic parameters of the peptide substrate with Factor XIa (substrate inhibition model); settings: substrate of FXIa
Excerpt: as §2

kcat (human plasma kallikrein [1]): 0.76 s⁻¹
Compound: Cc1cc(=O)oc2cc(NC(=O)[C@H](CCCNC(=N)N)NC(=O)[C@@H]3CCCN3C(=O)CNC(=O)OCc3ccccc3)ccc12 [Z-Gly-Pro-Arg-AMC] (Cbz-Gly-Pro-Arg-{AMC})

IC50 (Factor XIa [2]; 30 min preincubation, 15 μM 5Fam-KLTRAETV-K5Tamra substrate, top compound concentration 100 nM, kinetic read): > 100 nM | Ki (Factor XIa [2]; same assay as Factor XIa IC50): > 50 nM | IC50 (human plasma kallikrein [3]): 802 nM
Compound: NC(=O)c1ccc(NC(=O)[C@@H]2CC[C@H]3CCC(c4c(-n5cnnn5)ccc(Cl)c4F)=CC(=O)N32)cc1F [ID No. 20, (3S,9aR)-N-(4-carbamoyl-3-fluorophenyl)-7-(3-chloro-2-fluoro-6-(1H-tetrazol-1-yl)phenyl)-5-oxo-2,3,5,8,9,9a-hexahydro-1H-pyrrolo[1,2-a]azepine-3-carboxamide]

Ki (Factor XIa [4]): 61.6 µM | Km (Factor XIa [4]): 12.4 µM | kcat (Factor XIa [4]): 0.86 s⁻¹
Compound: 5Fam-KLTRAETV-K5Tamra (5FAM-KLTRAETV-{K(5-TAMRA)}) [fluorophore-quencher pair peptide substrate based on the Arg146 cleavage site of FXI, purchased from New England Peptide]
